From patent publication US8202857B2, “1,3-oxazepan-2-one and 1,3-diazepan-2-one inhibitors of 11β-hydroxysteroid dehydrogenase 1” (Vitae Pharmaceuticals, Inc., priority 2008, dated 2012)

Target: T1, human 11β-HSD1 (Homo sapiens, UniProt P28845)
T1 construct: expressed in transfected cells; host or cells: CHO cells (microsomes)
Test: Inhibition of a microsomal preparation of 11β-HSD1 (SPA), Biological Test Example 1
Assay type: biochemical
Conditions: microsomes from CHO cells overexpressing human 11β-HSD1; for IC50: read-out: IC50 Range^a; for inhibition at 0.1 µM: read-out: Average % inhibition at 100 nM, 100 nM; for Average % inhibition at 100 nM: 0.1 µM
Description: All reactions were carried out at rt in 96 well clear flexible PET Microbeta plates (PerkinElmer). […] After a 10 minute pre-incubation, 50 μL of enzyme solution containing microsomes isolated from CHO cells overexpressing human 11β-HSD1 (10-20 μg/ml of total protein) was added, and the plates were incubated for 90 minutes at rt. The reaction was stopped by adding 50 μl of the SPA beads suspension containing 10 μM 18β-glycyrrhetinic acid, 5 mg/ml protein A coated YSi SPA beads (GE Healthcare) and 3.3 μg/ml of anti-cortisol antibody (East Coast Biologics) in Superblock buffer (Bio-Rad). The plates were shaken for 120 minutes at rt, and the SPA signal corresponding to [^3H]cortisol was measured on a Microbeta plate reader.

T1 sequence (P28845 whole entry): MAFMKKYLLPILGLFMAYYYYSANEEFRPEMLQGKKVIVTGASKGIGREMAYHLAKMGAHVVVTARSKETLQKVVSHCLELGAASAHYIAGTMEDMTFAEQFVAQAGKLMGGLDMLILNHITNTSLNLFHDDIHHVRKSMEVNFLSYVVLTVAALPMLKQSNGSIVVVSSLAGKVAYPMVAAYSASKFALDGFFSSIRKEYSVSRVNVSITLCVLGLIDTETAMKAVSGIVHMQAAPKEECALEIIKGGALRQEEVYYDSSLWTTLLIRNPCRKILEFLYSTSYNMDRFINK

Q: How did the IC50 turn out when `C=CC[C@]1(c2ccccc2)CCCN([C@@H](C)c2ccc(Br)cc2)C(=O)N1` (single isomer, unassigned) [EXAMPLE 2 Isomer 2] was run?
A: Its IC50 is < 100 nM.

Q: What about the inhibition at 0.1 µM of the same compound?
A: The inhibition at 0.1 µM was 96.2%.

Q: With `C[C@@H](c1ccc(Br)cc1)N1CCC[C@@](CCO)(c2ccccc2)NC1=O` (single isomer, unassigned) [EXAMPLE 3 Isomer 1] as the compound, how does the “Average % inhibition at 100 nM” value read?
A: The value was 85.8%.

Q: And the IC50?
A: Its IC50 is < 100 nM.

Q: What does the source list for `C[C@@H](c1ccc(Br)cc1)N1CCC[C@](CCO)(c2ccccc2)NC1=O` (single isomer, unassigned) [EXAMPLE 3 Isomer 2]?
A: IC50: < 100 nM; inhibition at 0.1 µM: 97.6%

Q: Which results are given for `C=C(C)C[C@]1(c2ccccc2)CCCN([C@@H](C)c2ccc(Br)cc2)C(=O)O1` (single isomer, unassigned) [EXAMPLE 14 Isomer 1]?
A: IC50: < 100 nM; inhibition at 0.1 µM: 97.4%

Q: Which IC50 does the source give for `C=C(C)C[C@@]1(c2ccccc2)CCCN([C@@H](C)c2ccc(Br)cc2)C(=O)O1` (single isomer, unassigned) [EXAMPLE 14 Isomer 2] here?
A: The IC50 was < 100 nM.

Q: What about the inhibition at 0.1 µM of the same compound?
A: The inhibition at 0.1 µM was 111%.

Q: Which results are given for `C[C@@H](c1ccc(Br)cc1)N1CCC[C@](CC(C)(C)O)(c2ccccc2)OC1=O` (single isomer, unassigned) [EXAMPLE 15 Isomer 1]?
A: IC50: < 100 nM; inhibition at 0.1 µM: 86.2%

Q: With `C[C@@H](c1ccc(Br)cc1)N1CCC[C@@](CC(C)(C)O)(c2ccccc2)OC1=O` (single isomer, unassigned) [EXAMPLE 15 Isomer 2] as the compound, how does the IC50 read?
A: The IC50 was > 100 nM.

Q: What about the inhibition at 0.1 µM of the same compound?
A: The inhibition at 0.1 µM was 31.7%.

Q: How did the “Average % inhibition at 100 nM” value turn out when `C[C@@H](c1ccc(O)cc1)N1CCCC(CC(C)(C)O)(c2ccccc2)OC1=O` (single isomer, unassigned) [EXAMPLE 17 Isomer 1] was run?
A: The value was 41.6%.

Q: What about the IC50 of the same compound?
A: The IC50 was > 100 nM.

Q: What does the source list for `C[C@@H](c1ccc(O)cc1)N1CCCC(CC(C)(C)O)(c2ccccc2)OC1=O` (single isomer, unassigned) [EXAMPLE 17 Isomer 2]?
A: Average % inhibition at 100 nM: 68.5%; IC50: < 100 nM

Q: `C[C@@H](c1ccc(Br)cc1)N1CCC[C@](CCCO)(c2ccccc2)NC1=O` [EXAMPLE 1, (S)-1-((S)-1-(4-bromophenyl)ethyl)-4-(3-hydroxypropyl)-4-phenyl-1,3-diazepan-2-one] was tested. Which IC50 did it give?
A: The IC50 was < 100 nM.

Q: And the inhibition at 0.1 µM?
A: Its inhibition at 0.1 µM is 95.6%.

Q: How did the IC50 turn out when `CC(O)C[C@]1(c2ccccc2)CCCN([C@@H](C)c2ccc(Br)cc2)C(=O)N1` (stereo partly drawn) [EXAMPLE 4, (4S)-1-((S)-1-(4-bromophenyl)ethyl)-4-(2-hydroxypropyl)-4-phenyl-1,3-diazepan-2-one] was run?
A: The IC50 was < 100 nM.

Q: And the inhibition at 0.1 µM?
A: The inhibition at 0.1 µM was 95.8%.

Q: With `C[C@@H](c1ccc(Br)cc1)N1CCC[C@](CCC(N)=O)(c2ccccc2)NC1=O` [EXAMPLE 5, 3-((S)-1-((S)-1-(4-bromophenyl)ethyl)-2-oxo-4-phenyl-1,3-diazepan-4-yl)propanamide] as the compound, how does the IC50 read?
A: Its IC50 is < 100 nM.

Q: What about the inhibition at 0.1 µM of the same compound?
A: Its inhibition at 0.1 µM is 93.7%.

Q: What does the source list for `COc1ccc(-c2ccc([C@H](C)N3CCC[C@](CCO)(c4ccccc4)NC3=O)cc2)cn1` [EXAMPLE 6, (S)-4-(2-hydroxyethyl)-1-((S)-1-(4-(6-methoxypyridin-3-yl)phenyl)ethyl)-4-phenyl-1,3-diazepan-2-one]?
A: IC50: < 100 nM; inhibition at 0.1 µM: 95.5%

Q: `C=C(C)C[C@]1(c2ccccc2)CCCN([C@@H](C)c2ccc(Br)cc2)C(=O)N1` [EXAMPLE 7, (S)-1-((S)-1-(4-bromophenyl)ethyl)-4-(2-methylallyl)-4-phenyl-1,3-diazepan-2-one] was tested. Which IC50 did it give?
A: Its IC50 is < 100 nM.

Q: And the inhibition at 0.1 µM?
A: Its inhibition at 0.1 µM is 93%.

Q: For `C[C@@H](c1ccc(Br)cc1)N1CCC[C@](CC(C)(C)O)(c2ccccc2)NC1=O` [EXAMPLE 8, (S)-1-((S)-1-(4-bromophenyl)ethyl)-4-(2-hydroxy-2-methylpropyl)-4-phenyl-1,3-diazepan-2-one], which IC50 is on record?
A: Its IC50 is < 100 nM.

Q: What about the inhibition at 0.1 µM of the same compound?
A: Its inhibition at 0.1 µM is 97.5%.

Q: What does the source list for `C=C(C)C[C@]1(c2ccccc2)CCCN([C@@H](C)c2ccc(-c3ccn(C)c(=O)c3)cc2)C(=O)N1` [EXAMPLE 9, (S)-1-((S)-1-(4-(1-methyl-2-oxo-1,2-dihydropyridin-4-yl)phenyl)ethyl)-4-(2-methylallyl)-4-phenyl-1,3-diazepan-2-one]?
A: IC50: < 100 nM; inhibition at 0.1 µM: 95.2%

Q: Which results are given for `C=C(C)C[C@]1(c2ccccc2)CCCN([C@@H](C)c2ccc(-c3ccc(=O)n(C)c3)cc2)C(=O)N1` [EXAMPLE 10, (S)-1-((S)-1-(4-(1-methyl-6-oxo-1,6-dihydropyridin-3-yl)phenyl)ethyl)-4-(2-methylallyl)-4-phenyl-1,3-diazepan-2-one]?
A: IC50: < 100 nM; inhibition at 0.1 µM: 97.1%

Q: Which IC50 does the source give for `C[C@@H](c1ccc(-c2ccn(C)c(=O)c2)cc1)N1CCC[C@](CC(C)(C)O)(c2ccccc2)NC1=O` [EXAMPLE 11, (S)-4-(2-hydroxy-2-methylpropyl)-1-((S)-1-(4-(1-methyl-2-oxo-1,2-dihydropyridin-4-yl)phenyl)ethyl)-4-phenyl-1,3-diazepan-2-one] here?
A: The IC50 was < 100 nM.

Q: And the inhibition at 0.1 µM?
A: The inhibition at 0.1 µM was 98.3%.

Q: How did the IC50 turn out when `C[C@@H](c1ccc(-c2ccc(=O)n(C)c2)cc1)N1CCC[C@](CC(C)(C)O)(c2ccccc2)NC1=O` [EXAMPLE 12, (S)-4-(2-hydroxy-2-methylpropyl)-1-((S)-1-(4-(1-methyl-6-oxo-1,6-dihydropyridin-3-yl)phenyl)ethyl)-4-phenyl-1,3-diazepan-2-one] was run?
A: The IC50 was < 100 nM.

Q: And the inhibition at 0.1 µM?
A: The inhibition at 0.1 µM was 92.9%.

Q: `C[C@@H](c1ccc(-c2ccn(C3CC3)c(=O)c2)cc1)N1CCC[C@](CC(C)(C)O)(c2ccccc2)NC1=O` [EXAMPLE 13, (S)-1-((S)-1-(4-(1-cyclopropyl-2-oxo-1,2-dihydropyridin-4-yl)phenyl)ethyl)-4-(2-hydroxy-2-methylpropyl)-4-phenyl-1,3-diazepan-2-one] was tested. Which IC50 did it give?
A: The IC50 was < 100 nM.

Q: What about the inhibition at 0.1 µM of the same compound?
A: The inhibition at 0.1 µM was 94.2%.

Q: Which IC50 does the source give for `C[C@@H](c1ccc(-c2ccn(C3CC3)c(=O)c2)cc1)N1CCC[C@](CC(C)(C)O)(c2ccccc2)OC1=O` [EXAMPLE 18, (S)-3-((S)-1-(4-(1-cyclopropyl-2-oxo-1,2-dihydropyridin-4-yl)phenyl)ethyl)-7-(2-hydroxy-2-methylpropyl)-7-phenyl-1,3-oxazepan-2-one] here?
A: The IC50 was < 100 nM.

Q: What about the inhibition at 0.1 µM of the same compound?
A: Its inhibition at 0.1 µM is 86.8%.

Q: `C[C@@H](c1ccc(-c2ccn(C)c(=O)c2)cc1)N1CCC[C@](CC(C)(C)O)(c2ccccc2)OC1=O` [EXAMPLE 19, (S)-7-(2-hydroxy-2-methylpropyl)-3-((S)-1-(4-(1-methyl-2-oxo-1,2-dihydropyridin-4-yl)phenyl)ethyl)-7-phenyl-1,3-oxazepan-2-one] was tested. Which IC50 did it give?
A: The IC50 was < 100 nM.

Q: What about the inhibition at 0.1 µM of the same compound?
A: Its inhibition at 0.1 µM is 80.3%.

Q: Which IC50 does the source give for `C[C@@H](c1ccc(-c2ccc(=O)n(C3CC3)c2)cc1)N1CCC[C@](CC(C)(C)O)(c2ccccc2)NC1=O` [EXAMPLE 20, (S)-1-((S)-1-(4-(1-cyclopropyl-6-oxo-1,6-dihydropyridin-3-yl)phenyl)ethyl)-4-(2-hydroxy-2-methylpropyl)-4-phenyl-1,3-diazepan-2-one] here?
A: The IC50 was < 100 nM.

Q: What about the inhibition at 0.1 µM of the same compound?
A: The inhibition at 0.1 µM was 97.4%.
